Entries after “also recorded” stand apart in the source; their conditions may differ.
Assays:
[1] = system: Norepinephrine (NE) levels; test: Norepinephrine (NE) determination in brain tissue by HPLC with electrochemical detection; assay type: in vivo, mice; settings: for NE: ng/g wet tissue +/− SEM; for norepinephrine levels in the hippocampus vs. control / norepinephrine levels in the hypothalamus vs. control: result in words
Experimental: (§1) Solution of DHBA as internal standard in the concentration of: 1 μg/ml in 0.1M perchloric acid, were prepared. Standard solutions of NE and 5HT in the concentration of 1-0.1 μg/ml in 0.1M perchloric acid were prepared.
(§2) Tissues (hypothalamus and hippocampus) obtained from 6-8 mice were dissected on ice surface and kept at −80 C. Hypothalamus (HT) or hippocampus (HC) from 1 mice were weighted (weight of HT −10-20 mg, HC 30-40 mg) and placed in eppendorf micro-centrifuge tube, 1.5 ml. To each tube was added 120-160 μl of ice cold solution of Perchloric acid and DHBA, homogenized in ice bath on Sonics vibra cell, 3×20 sec., 0.4 watts and centrifuged at 14,000×g at 4° C. 10 min. Supernatant gained was stored in ice before analysis.
(§3) The HPLC system consisted of Jasco PU-980 pump, Jasco AS-950-10 autosampler cooled at 4° C., H3 ODS-125A 3 μm 125 mm×4.6 mm i.d. analytical column (Hichrom, UK) were used. Electrochemical detector Coulochem ESA 5100A with analytical cell model 5011 was used for control detector voltage and record the current. Working electrode was set at potential +350 mV. Control and data collection/processing were handled through Borwin chromatography software.
(§4) The mobile phase composition: A stock buffer was prepared as follows: 20 mM sodium dihydrogenorthophosphate, EDTA 3 mg/l, 1-heptanesulfonic acid 1 g/l were dissolved in 1 liter deionized distilled water and buffered to pH 3.7 using concentrated phosphoric acid. To prepare the mobile phase buffer was mixed with acetonitrile (Baker HPLC analyzed) in the ratio 85:15 (v/v), filtered through a 0.2 μm membrane filter and degassed under vacuum after mixing. Mobile phase flow rate 1 ml/min. Injection volume 20 μl, retention time for DHBA 4.2 min., norepinephrine—3.1 min., 5HT 8.6 min. For calibration curve 1 ug/ml solution of DHBA together with 1.0-0.1 μg/ml solutions of 5HT and NE were used. The ratio between 5HT or NE and DHBA used to calculate the level of 5HT and NE in the sample. Date are given in ng/g wet tissue +/−SEM.

serotonin (5HT) levels = test: Serotonin (5HT) determination in brain tissue by HPLC with electrochemical detection; assay type: in vivo, mice; settings: for 5HT: ng/g wet tissue +/− SEM; for 5HT levels in the hippocampus vs. control / 5HT levels in the hypothalamus vs. control: result in words
Experimental: as §1, §2, §3, §4

[2] = Forced Swim Test (FST), separated BALB/c mice; assay type: in vivo; settings: compounds 1 mg/kg i.p., imipramine 10 mg/kg i.p.; day 8; in relation to vehicle
Experimental: Forced swim test (FST): The animal is placed in a circular, transparent, plexiglass tank measuring 21 cm in diameter and 46 cm in height containing water 15 cm high, maintained at 23-25° C. […] Also measured is the latency period, the time elapsing, for each animal from immersion in the water tank until the first occurrence of immobility. Since climbing activity is minimal in mice, […].
(§5) 50, 2 month old female BALB/c mice, 10 mice per group, on ad libitum diet were separated (each mouse in a different cage) for 9 days (Separation Stress, a model for depression). On the 7, 8, 9, 34-40 days mice were administered with either vehicle or compounds x, 12 and 15 (1 mg/kg i.p.) or imipramine 10 mg/kg (antidepressant) i.p. and tested in the forced swim test (FST) on day 8.

[3] = Weight and food consumption in OB/OB mice which lack the leptin gene; assay type: in vivo
Excerpt: Thus the compounds of the invention can be used to treat conditions that are mediated by the enhancement of leptin levels. In obesity there is high leptin level however the leptin receptors are not responding. High CNS leptin level has anti-depression effect however, if there is tolerance there is no anti depression effect.

[4] = Novelty Suppressed Feeding Test (NSFT), separated BALB/c mice; assay type: in vivo; settings: compounds 1 mg/kg i.p., day 9; for food intake in NSFT: in relation to vehicle and more than imipramine 10 mg/kg; for motor activity in NSFT: resembled imipramine 10 mg/kg
Experimental: (§6) Novelty suppressed feeding test (NSFT): After the last treatment injection, all food is removed from the cage for 24 hours (water available ad libitum). At the end of this time, the animal is introduced into a 50×50×20 (height) cm wooden arena the floor of which is marked with equal rectangles of 10×10 cm. A pellet of food is placed on an elevated surface in the center of the arena. The time elapsing from the introduction of the animal into the arena until it commences eating (latency to feed) is recorded. The animal is removed from the arena immediately after it begins to eat or after not doing so for 5 min. During the test, the number of lines crossed by the animal is counted as a measure of motor activity, and calibrated for 5 min if the animal started eating before that. After the test, the animal is immediately transferred to its home cage and left to consume a previously weighed amount of food for 10 minutes. On completion of this period the food is weighed again to calculate the home cage food consumption.
as §5, with “34-40,” for “34-40”, “Novel Suppressed Feeding Test” for “the forced swim test (FST)”, “9.” for “8.”
as §6, with “FIGS. 9A-9C show the results of the NSFT. […]” for “Novelty suppressed feeding test (NSFT):”, “hours.” for “hours (water available ad libitum).”, “into” for “into a 50×50×20 (height) cm wooden arena”, “open field test.” for “floor of which is marked with equal rectangles of 10×10 cm.”, “to find” for “elapsing from”, “food was” for “introduction of the animal into the arena until it commences eating (latency to feed) is”

[5] = Neurological score measured by the NSS method; assay type: in vivo, BALB/c mice; settings: 1 mg/kg i.p.
[6] = Eight Arm Maze Test, separated BALB/c mice; assay type: in vivo; settings: compounds 1 mg/kg i.p., imipramine 10 mg/kg i.p.; day 34-38; in relation to vehicle (p<0.05)
Experimental: 2 month old female BALB/c mice 10 mice per group were separated (each mouse in a different cage) for 9 days (a model for depression). On days 7, 8, 9, 34-40 days mice were administered with either vehicle or compounds X, 12 and 15 (1 mg/kg i.p.) or imipramine 10 mg/kg (anti-depressant) i.p. and tested in the Eight Arm Maze from day 34-38.

[7] = Weight and food consumption in Sabra mice; assay type: in vivo
Experimental: 140 Female Sabra Mice 12 weeks old are divided to […] 10 mice in each group with equal weight. Mice are administered I.P. with either saline or 1 mg/kg Fluoxetine (PROZAC), compound 1, 4, 5, 7, 10, 11, 12, 13, 14, 15, 19, 26 for a 4 weeks period. On day 30 and on, mice were tested by the following behavioral tests. […]

[8] = Tail Suspension Test, separated BALB/c mice (model for depression); assay type: in vivo; settings: compounds 1 mg/kg i.p., imipramine 10 mg/kg i.p.; day 7; in relation to vehicle
Excerpt: Tail suspension test (TST): Animals are suspended upside down by adhesive tape placed 1 cm from the tail tip. The elevation of the animal is 50 cm from the nearest surface. […] Statistical analysis compares the magnitude of immobility (in seconds) between different treatment groups. In this test, antidepressants characteristically cause an increase of the time fraction spent by the animal as active at the expense of the inactivity period.
50, 2 month old female BALB/c mice were separated (each mouse in a different cage) for 9 days period (a model for depression). On days 7, 8, 9, 34-40 mice were administered with either vehicle or compounds X, 12 and 15 (1 mg/kg i.p.) or imipramine 10 mg/kg (anti-depressant) i.p. and tested in the Tail suspension test on day 7 of the experiment (10 mice per group).

Row | neurological score (NSS method) [5] | Compound | NE ([1]; Hippocampus) | norepinephrine levels in the hippocampus vs. control [1] | 5HT (serotonin (5HT) levels; Hippocampus) | 5HT (serotonin (5HT) levels; Hypothalamus) | 5HT levels in the hippocampus vs. control (serotonin (5HT) levels) | 5HT levels in the hypothalamus vs. control (serotonin (5HT) levels) | swimming activity in forced swim test [2] | food consumption [3] | weight (weight loss) [3] | food intake in NSFT [4] | motor activity in NSFT [4] | performance in the Eight Arm Maze [6] | food consumption [7] | weight (weight loss) [7] | activity in Tail Suspension Test [8] | further results
1 | did not affect neurological score | CCCCCCCC/C=C\CCCCCCCCOC(=O)N[C@H](CO)C(C)C [Compound 12, Oleyloxycarbonyl-L-Valinol amide] | 378.9 ± 31.4 ng/g | significantly enhanced; also recorded: increase significantly | 332.1 ± 52.7 ng/g | 810.5 ± 70.6 ng/g | significantly enhanced; also recorded: increased significantly | increased significantly | significantly enhanced swimming activity | did not change | do not produce weight loss; also recorded: did not change | significantly enhanced food intake | enhanced motor activity | significantly improved performance | significant decrease | significant weight loss; also recorded: significant decrease |  | 
2 | did not affect neurological score | CCCCCCCC/C=C\CCCCCCCCNC(=O)N[C@H](CO)C(C)C [Compound 15, Oleyl-amine-carbonyl-L-valinol] | 373.7 ± 48.1 ng/g | increase significantly | 396.7 ± 21 ng/g | 853 ± 78.3 ng/g | increased significantly | increased significantly | significantly enhanced swimming activity | did not change | do not produce weight loss; also recorded: did not change | significantly enhanced food intake | enhanced motor activity | significantly improved performance | significant decrease | significant weight loss; also recorded: significant decrease | significantly enhanced activity | NE ([1]; Hypothalamus): 1234.8 ± 59.8 ng/g; norepinephrine levels in the hippocampus vs. control ([1]; listed as compound 15): significantly enhanced; norepinephrine levels in the hypothalamus vs. control [1]: increased significantly; norepinephrine levels in the hypothalamus vs. control ([1]; listed as compound 15): significantly enhanced; 5HT levels in the hippocampus vs. control (serotonin (5HT) levels; listed as compound 15): significantly enhanced; 5HT levels in the hypothalamus vs. control (serotonin (5HT) levels; listed as compound 15): significantly enhanced
3 |  | CN(C)CCCN1c2ccccc2CCc2ccccc21 [imipramine, reference compound] |  |  |  |  |  |  | significantly enhanced swimming activity |  |  |  |  | significantly improved performance |  |  | significantly enhanced activity | 

Reference: patent US20150202179A1, “FATTY ACID DERIVATIVES FOR USE IN A METHOD OF TREATING DEPRESSION AND ASSOCIATED CONDITIONS” (YISSUM RESEARCH DEVELOPMENT COMPANY OF THE HEBREW …, priority 2012, published 2015)
